4 compounds from US5358964A, “Benzylidene-lactone and their thiocarbonyl analogs as inhibitors of proteoglycan degradation” (Warner-Lambert Company, priority 1993, dated 1994) can be followed below.

The assay deals with IL-1-induced proteoglycan degradation in bovine nasal cartilage. As to the kind of experiment: Bovine Nasal Cartilage (BNC) assay: inhibition of IL-1-induced proteoglycan degradation (chondroitin sulfate release, 1,9-DMB). Format: cell-based. The conditions noted are these: Bos taurus, bovine nasal cartilage explants, IL-1β (500 U); for IC50: 48 h with compound + 24 h fresh media, dose responses 10, 1, 0.1 μM. The source says: The BNC (bovine nasal cartilage) assay provides a model for evaluating chrondroprotective compounds that block cartilage degradation through inhibition of enzyme activity or by altering the gene expression of the matrix metalloproteinase stromelysin.
Bovine nasal cartilage is obtained from a local slaughter house (Milan, Mich.); cell culture reagents from Gibco (Grand Island, N.Y.); human recombinant Interleukin-1β (IL-1β) from Boehringer Mannheim (Indianapolis, Ind.); DMB from Polysciences (Warrington, Pa.); Falcon 24 well flat-bottom tissue culture plates from Becton Dickinson (Lincoln Park, N.J.); disposable 20-mL scintillation vials from Kimble Glass (Vinland, N.J.); Papain from Sigma (P-3125, St. Louis, Miss.); high purity dimethyl sulfoxide from Burdic & Jackson (081-1, Distributed by Baxter Healthcare, McGraw Park, Ill.); Sarstedt vials for radioimmune assays (Sarstedt, Newton, N.C.); Sarstedt 96-vial aluminum racks (Sarstedt, Newton, N. C.); Cetus Pro/Pette (Perkin Elmer, Norwalk, Conn.).
The assay is accomplished in two phases. The cartilage plugs are first incubated with IL-1 in the presence of compounds. The amount of proteoglycan released is then quantified by measuring chondroitin sulfate present in the media using the 1,9-Dimethylmethylene Blue Assay.
Cartilage Culture. Bovine nasal septum is dissected free of surrounding tissue and wiped with 70% alcohol. A sterile cork borer is used to remove 5-mm cartilage disks of 2 to 3 mm thickness. Explants are equilibrated for 96 hours in F-12 supplemented with 10% fetal calf serum (FCS) and antibiotics at 37° C. in a humidified atmosphere of 95% air and 5% CO2. Explants are then rinsed with 1 mL F-12 Nutrient Mixture (without phenol red) in order to remove traces of FCS. Each treatment group is done in triplicate allowing: controls (500 μL F-12 medium + 110 μL PBS with 0.1% BSA + 7 μL DMSO); IL-1β (500 μL F-12 medium without phenol red + 100 μL IL-1β (500 U) + 7 μL DMSO + 10 μL PBS with 0.1 % BSA); and dose responses (10, 1, and 0.1 μM) (F-12 medium without phenol red + 100 μL IL-1β (500 U) + 7 μL compound dissolved in DMSO + 10 μL PBS with 0.1% BSA), to be tested per each 24-well plate. The cartilage plugs are incubated in the presence of conditioned media (IL-1β + compound) for 48 hours. […]
Quantitation of Cartilage Degradation. The ability of a compound to inhibit proteoglycan released from the cartilage plugs is quantified by measuring chondroitin sulfate. […] This color change is measured using a Titertek Multiscan MCC 340 plate reader at 540 nm. […] It is necessary to dilute (1:5, 1:10) the medium before a […] is performed by adding 10 μL of collected media to 290 μL DMF (16 mg dye/1 L of 0.1M formate buffer, pH 3.5, containing 5 mL ethanol) and reading […]. […]

Usually IC50 stands for the point on the concentration scale where inhibition reaches its midpoint. For the compound `O=C1OCC/C1=C\c1ccccc1Nc1cccc(C(F)(F)F)c1` [Example 3, (E)-4,5-Dihydro-3-[[2-[[3-(trifluoromethyl)phenyl]-amino]phenyl]methylene]-2(3H)-furanone], the IC50 stood at 520 nM.

As usually defined, the inhibition is how much of the control response was suppressed. With `Cc1ccc(Cl)c(Nc2ccccc2/C=C2\CCOC2=S)c1Cl` [Example 2, (E)-3-[[2-[(2,6-Dichloro-3-methylphenyl)amino]phenyl]methylene]-4,5-dihydro-2(3H) -furanthione], under “@ 10.0 μM, read-out: Percent Inhibition @ μM”, the inhibition at 10 µM was greater than 50%.

For `Cc1ccc(Cl)c(Nc2ccccc2/C=C2\CCOC2=O)c1Cl` [Example 1, (E)-3-[[2-[(2,6-Dichloro-3-methylphenyl)amino]phenyl]methylene]4,5-dihydro-2(3H)-furanone], the IC50 worked out at 390 nM. In the case of `O=C1OCC/C1=C\c1ccccc1Nc1ccccc1` [Example 4, (E)-4,5-Dihydro-3-[[2-(phenylamino)phenyl]methylene]2(3H) -furanone], for the setting “@ 0.10 μM, read-out: Percent Inhibition @ μM”, the inhibition at 0.1 µM is 70%.
